Measurements: US9732031B2 (priority 2013, dated 2017)

How the values were obtained:
[1] = in vivo; settings: male, C57BL/6, mouse, po; for half-life: 75 mg/kg
Procedure: As appreciated, h-rac-bupropion is a 1:1 mixture of the two protonated enantiomers h-S-bupropion and h-R-bupropion. […] Animals were euthanized at preset time points (n=3 per time point). […] Quantitative data was analyzed in Excel (Microsoft Corp, Redmond, Wash.) using the PKSolver add-in (version 2, as described by Zhang et al. in Comput Methods Programs Biomed 99 (2010) 306-314) to determine PK parameters.

[2] = target: T1, human α7 nicotinic acetylcholine receptor (Homo sapiens, UniProt P36544); test: Inhibition of acetylcholine induced current in Xenopus Laevis oocytes overexpressing α7 nAChR; type: cell-based
T1 construct: expressed in transfected cells; host or cells: Xenopus laevis oocytes injected with cDNA
T1 sequence (P36544 23-502): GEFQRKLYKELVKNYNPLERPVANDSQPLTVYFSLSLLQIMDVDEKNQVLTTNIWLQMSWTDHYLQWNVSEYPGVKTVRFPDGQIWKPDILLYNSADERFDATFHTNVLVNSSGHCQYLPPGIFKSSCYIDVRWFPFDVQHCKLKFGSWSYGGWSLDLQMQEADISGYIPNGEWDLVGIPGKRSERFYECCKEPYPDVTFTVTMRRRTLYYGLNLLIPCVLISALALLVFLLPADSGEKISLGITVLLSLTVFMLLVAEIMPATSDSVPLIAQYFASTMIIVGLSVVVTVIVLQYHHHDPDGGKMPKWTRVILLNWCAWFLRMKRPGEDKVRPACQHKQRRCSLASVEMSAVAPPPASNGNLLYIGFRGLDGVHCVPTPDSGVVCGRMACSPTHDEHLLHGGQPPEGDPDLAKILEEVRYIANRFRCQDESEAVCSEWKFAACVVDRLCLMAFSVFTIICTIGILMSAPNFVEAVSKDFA
Procedure: Evaluation of the antagonist activity of the enantiomers of deuterated bupropion at α7 and α4β2 nicotinic acetylcholine receptors (nAChRs) was carried out in Xenopus Laevis oocytes prepared and injected with the corresponding cDNA using standard procedures. Receptor expression was examined two days after injection. For α4β2 nAChR, the two cDNAs were injected in equimolar amounts. All experiments were performed at 18° C. and cells were superfused with OR2 medium containing 82.5 mM sodium chloride, 2.5 mM potassium chloride, 5 mM HEPES, 1.8 mM calcium chloride, and 1 mM magnesium chloride at pH 7.4. A two-electrode voltage-clamp configuration was used to record currents evoked by acetylcholine addition. Data acquisition and analysis was performed in Matlab (Mathworks, Inc., Natick, Mass.). Statistical analysis was executed in Excel (Microsoft Corp, Redmond, Wash.) or Matlab (Mathwork, Inc., Natick, Mass.). All experiments were carried out using at least 3 oocytes.

[3] = test system: female CD-1 mice; test: Behavioral effects after intraperitoneal injection in female CD-1 mice; settings: 2 h observation
Procedure: Individual body weights were used for dose volume calculations. Equal numbers of animals per group were tested each day. […] Animals were also observed 24 h post-dose. During the 2 h observation period, presence or absence of ataxic gait, paralysis, hyperactivity, hypoactivity, and catatonic episodes was recorded. Number, time of onset, duration, and intensity of convulsions were also recorded. Duration of each convulsion was graded as short (1 to 10 s), medium (11 to 30 s), or long (≧31 s). Intensity of convulsion was similarly graded as mild, moderate, or severe. Any animal showing a single episode of severe seizure longer than 1 min or experiencing greater than 40 consecutive episodes of severe convulsions over 1 h or less was euthanized.

[4] = target: T2, norepinephrine transporter (Rattus norvegicus, UniProt Q63380); test: Inhibition of norepinephrine uptake in rat hypothalamus synaptosomes; type: biochemical
T2 construct: tissue Cerep, France (assay provider); host or cells: rat hypothalamus synaptosomes
T2 sequence (Q63380 1-617): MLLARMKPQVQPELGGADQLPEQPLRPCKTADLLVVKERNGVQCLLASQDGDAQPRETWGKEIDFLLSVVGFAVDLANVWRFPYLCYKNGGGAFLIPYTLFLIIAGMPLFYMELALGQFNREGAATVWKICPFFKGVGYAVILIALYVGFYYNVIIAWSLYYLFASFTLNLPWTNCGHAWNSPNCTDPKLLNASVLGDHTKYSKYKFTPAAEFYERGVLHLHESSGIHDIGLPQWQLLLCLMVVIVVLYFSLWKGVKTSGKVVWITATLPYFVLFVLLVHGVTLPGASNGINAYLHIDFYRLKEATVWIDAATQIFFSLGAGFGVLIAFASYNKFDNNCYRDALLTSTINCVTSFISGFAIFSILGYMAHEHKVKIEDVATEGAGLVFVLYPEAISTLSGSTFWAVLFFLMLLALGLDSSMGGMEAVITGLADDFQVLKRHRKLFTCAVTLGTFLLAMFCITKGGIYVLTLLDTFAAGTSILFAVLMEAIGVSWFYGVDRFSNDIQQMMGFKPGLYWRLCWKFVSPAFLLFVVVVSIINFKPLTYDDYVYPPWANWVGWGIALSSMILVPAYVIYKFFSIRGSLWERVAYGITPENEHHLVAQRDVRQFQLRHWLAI
Procedure: The inhibitory activity of the (S)- and (R)-enantiomers of 1-(m-chlorophenyl)-2-(tert-butylamino)-(2-^2H)-propan-1-one was evaluated in the rat synaptosome assay (Cerep, France). Briefly, compounds were incubated for 20 min at 37° C. with rat hypothalamus synaptosomes in the presence of tritiated norepinephrine (NE). The uptake of radiolabeled NE by the synaptosomes was measured as a function of compound concentration. Inhibition of the transporter is observed when the amount of radioactivity in the synaptosomes is lower in the presence of test article. Analysis of the data was performed using the log(inhibitor) vs. response—variable slope (four parameters) model in GraphPad Prism 6.0 (GraphPad Software, Inc., La Jolla, Calif.), where response is % inhibition (% inhibition=100 [(NE uptake)control−(NE uptake)compound)]/(NE uptake)vehicle). Both inhibition curves were characterized by Hill slopes close to 1.

[5] = target: T3, dopamine transporter (Rattus norvegicus, UniProt P23977); test: Inhibition of dopamine uptake in rat striatum synaptosomes; type: biochemical
T3 construct: tissue Cerep, France (assay provider); host or cells: rat striatum synaptosomes
T3 sequence (P23977 whole entry): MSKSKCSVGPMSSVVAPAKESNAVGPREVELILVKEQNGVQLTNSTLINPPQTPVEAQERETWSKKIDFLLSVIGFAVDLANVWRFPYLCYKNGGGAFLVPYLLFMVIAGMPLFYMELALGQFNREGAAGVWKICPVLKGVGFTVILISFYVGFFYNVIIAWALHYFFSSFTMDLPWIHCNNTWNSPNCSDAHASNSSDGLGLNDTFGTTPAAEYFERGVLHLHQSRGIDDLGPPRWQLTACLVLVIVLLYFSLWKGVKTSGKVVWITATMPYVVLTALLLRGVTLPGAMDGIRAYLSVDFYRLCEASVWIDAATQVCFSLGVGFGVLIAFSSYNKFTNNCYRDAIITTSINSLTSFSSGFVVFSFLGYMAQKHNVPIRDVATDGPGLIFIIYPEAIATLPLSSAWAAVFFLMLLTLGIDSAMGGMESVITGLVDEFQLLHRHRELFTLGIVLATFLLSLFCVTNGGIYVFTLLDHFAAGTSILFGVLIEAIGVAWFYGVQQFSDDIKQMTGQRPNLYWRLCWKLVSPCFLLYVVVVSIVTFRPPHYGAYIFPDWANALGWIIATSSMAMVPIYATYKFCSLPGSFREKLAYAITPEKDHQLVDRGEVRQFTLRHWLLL
Procedure: The inhibitory activity of the (S)- and (R)-enantiomers of 1-(m-chlorophenyl)-2-(tert-butylamino)-(2-^2H)-propan-1-one was evaluated in the rat synaptosome assay (Cerep, France). Briefly, each compound was incubated for 15 min at 37° C. with rat striatum synaptosomes in the presence of tritiated dopamine (DA). The uptake of radiolabeled DA by the synaptosomes was measured by scintillation counting as a function of compound concentration. Inhibition of the dopamine transporter is observed when the amount of radioactivity in the synaptosomes is lower in the presence of the test article than in its absence. Analysis of the data was performed using the log(inhibitor) vs. response—variable slope (four parameters) model in GraphPad Prism 6.0 (GraphPad Software, Inc., La Jolla, Calif.), where response is % inhibition (% inhibition=100 [(DA uptake)control−(DA uptake)compound)]/(DA uptake)vehicle). Both inhibition curves were characterized by Hill slopes close to 1.

| SMILES | AUC0-t of hR (h-R-bupropion) in plasma [1] | AUC0-t of hRR (h-RR-hydroxybupropion) in plasma [1] | AUC0-t of hS (h-S-bupropion) in plasma [1] | AUC0-t of hSS (h-SS-hydroxybupropion) in plasma [1] | IC50 [2] | mice per dose group experiencing ataxia ([3]; 100 mg/kg i.p.) | mice per dose group experiencing catatonia ([3]; 100 mg/kg i.p.) | mice per dose group experiencing convulsions ([3]; 100 mg/kg i.p.) | mice per dose group experiencing hyperactivity ([3]; 100 mg/kg i.p.) | mice per dose group experiencing hypoactivity ([3]; 100 mg/kg i.p.) | mice per dose group experiencing ataxia ([3]; 125 mg/kg i.p.) | mice per dose group experiencing catatonia ([3]; 125 mg/kg i.p.) | mice per dose group experiencing convulsions ([3]; 125 mg/kg i.p.) | mice per dose group experiencing hyperactivity ([3]; 125 mg/kg i.p.) | mice per dose group experiencing hypoactivity ([3]; 125 mg/kg i.p.) | mice per dose group experiencing ataxia ([3]; 150 mg/kg i.p.) | mice per dose group experiencing catatonia ([3]; 150 mg/kg i.p.) | mice per dose group experiencing convulsions ([3]; 150 mg/kg i.p.) | mice per dose group experiencing hyperactivity ([3]; 150 mg/kg i.p.) | mice per dose group experiencing hypoactivity ([3]; 150 mg/kg i.p.) | also measured |
| --- | --- | --- | --- | --- | --- | --- | --- | --- | --- | --- | --- | --- | --- | --- | --- | --- | --- | --- | --- | --- | --- |
| CC(NC(C)(C)C)C(=O)c1cccc(Cl)c1 (racemic) [h-rac-bupropion, racemic-1-(m-chlorophenyl)-2-(tert-butylamino)-propan-1-one, reference compound] | 6798 ng·h/mL | 18393 ng·h/mL | 5265 ng·h/mL | 6591 ng·h/mL | – | – | – | – | – | – | – | – | – | – | – | – | – | – | – | – | – |
| [2H][C@](C)(NC(C)(C)C)C(=O)c1cccc(Cl)c1 [d-R-bupropion, (R)-1-(m-chlorophenyl)-2-(tert-butylamino)-(2-^2H)-propan-1-one] | 496 ng·h/mL | 1685 ng·h/mL | 340 ng·h/mL | 169 ng·h/mL | 28.7 µM | 56% | 78% | 33% | 0% | 100% | 80% | 90% | 60% | 0% | 100% | 90% | 100% | 100% | 0% | 100% | IC50 [4]: 5.76 µM; AUC0-t of dRR (d-RR-hydroxybupropion) in plasma [1]: 22059 ng·h/mL; half-life [1]: 1.7 h; IC50 [5]: 4.2 µM |
| [2H][C@@](C)(NC(C)(C)C)C(=O)c1cccc(Cl)c1 [d-S-bupropion, (S)-1-(m-chlorophenyl)-2-(tert-butylamino)-(2-^2H)-propan-1-one] | 269 ng·h/mL | 1129 ng·h/mL | 469 ng·h/mL | 395 ng·h/mL | 43.2 µM | 70% | 10% | 40% | 100% | 0% | 89% | 44% | 70% | 78% | 0% | 100% | 80% | 100% | 20% | 80% | IC50 [4]: 2.3 µM; AUC0-t of dSS (d-SS-hydroxybupropion) in plasma [1]: 6545 ng·h/mL; AUC(0-t) [1]: 4760 ng·h/mL; half-life [1]: 0.9 h; IC50 [5]: 0.42 µM |
